# Source: patent publication US11912686B2 (Gilead Sciences, Inc., priority 2020, dated 2024)
# Target: human LPAR1 (Homo sapiens (Human), UniProt Q92633)
# Experiment: LPAR1 intracellular calcium mobilization assay (antagonist mode, FLIPR)
# Type: cell-based
# Details: CHO-K1 EDG2 cells expressing human LPAR1, LPA 18:2 at EC80 (100 nM), test compound 0.5 nM to 10 μM
# Chain of human LPAR1 (Q92633 whole entry): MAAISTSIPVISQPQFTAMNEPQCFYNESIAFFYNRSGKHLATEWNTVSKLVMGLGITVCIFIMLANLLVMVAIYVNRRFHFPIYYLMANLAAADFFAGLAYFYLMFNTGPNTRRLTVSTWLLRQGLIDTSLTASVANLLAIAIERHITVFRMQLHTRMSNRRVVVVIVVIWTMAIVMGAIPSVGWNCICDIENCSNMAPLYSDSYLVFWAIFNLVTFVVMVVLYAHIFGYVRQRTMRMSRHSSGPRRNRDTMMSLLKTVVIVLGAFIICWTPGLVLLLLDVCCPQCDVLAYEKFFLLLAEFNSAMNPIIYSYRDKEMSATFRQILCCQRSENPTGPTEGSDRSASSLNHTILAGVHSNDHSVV
row,SMILES,EC50
1,"C[C@@H](OC(=O)Nc1c(-c2ccc(NC(=O)C3[C@@H]4COC[C@@H]34)cn2)nnn1C)c1cccnc1Cl (stereo partly drawn) [Compound 158, (R)-1-(2-chloropyridin-3-yl)ethyl (4-(5-((1R,5R)-3-oxabicyclo[3.1.0]hexane-6-carboxamido)pyridin-2-yl)-1-methyl-1H-1,2,3-triazol-5-yl)carbamate]",117 nM
2,"C[C@@H](OC(=O)Nc1c(-c2ccc(NC(=O)C3(Cl)CC3)cn2)nnn1C)c1cccnc1Cl [Compound 40, (R)-1-(2-chloropyridin-3-yl)ethyl (4-(5-(1-chlorocyclopropane-1-carboxamido)pyridin-2-yl)-1-methyl-1H-1,2,3-triazol-5-yl)carbamate]",75.2 nM
3,"C[C@@H](OC(=O)Nc1c(-c2ccc(NC(=O)c3ccnc(Cl)c3)cn2)nnn1C)c1cccnc1Cl [Compound 103, (R)-1-(2-chloropyridin-3-yl)ethyl (4-(5-(2-chloroisonicotinamido)pyridin-2-yl)-1-methyl-1H-1,2,3-triazol-5-yl)carbamate]",16.6 nM
4,"C[C@@H](OC(=O)Nc1c(-c2ccc(NC(=O)[C@H]3C[C@@H](C#N)C3)cn2)nnn1C)c1cccnc1Cl [Compound 128, (R)-1-(2-chloropyridin-3-yl)ethyl (4-(5-((1s,3S)-3-cyanocyclobutane-1-carboxamido)pyridin-2-yl)-1-methyl-1H-1,2,3-triazol-5-yl)carbamate]",309 nM
5,"C[C@@H](OC(=O)Nc1c(-c2ccc(NC(=O)CO)cn2)nnn1C)c1cccnc1Cl [Compound 126, (R)-1-(2-chloropyridin-3-yl)ethyl (4-(5-(2-hydroxyacetamido)pyridin-2-yl)-1-methyl-1H-1,2,3-triazol-5-yl)carbamate]",1830 nM
6,"C[C@@H](OC(=O)Nc1c(-c2ccc(NC(=O)N3CCC3)cn2)nnn1C)c1cccnc1Cl [Compound 188, (R)-1-(2-chloropyridin-3-yl)ethyl (4-(5-(azetidine-1-carboxamido)pyridin-2-yl)-1-methyl-1H-1,2,3-triazol-5-yl)carbamate]",452 nM
7,"C[C@@H](OC(=O)Nc1c(-c2ccc(NC(=O)[C@]3(C#N)C[C@H]3C(F)(F)F)cn2)nnn1C)c1cccnc1Cl [Compound 201, (R)-1-(2-chloropyridin-3-yl)ethyl (4-(5-((1R,2R)-1-cyano-2-(trifluoromethyl)cyclopropane-1-carboxamido)pyridin-2-yl)-1-methyl-1H-1,2,3-triazol-5-yl)carbamate]",146 nM
8,"CCOC(=O)Nc1ccc(-c2nnn(C)c2NC(=O)O[C@H](C)c2cccnc2Cl)nc1 [Compound 21, (R)-1-(2-chloropyridin-3-yl)ethyl (4-(5-((ethoxycarbonyl)amino)pyridin-2-yl)-1-methyl-1H-1,2,3-triazol-5-yl)carbamate]",39.6 nM
9,"C[C@@H](OC(=O)Nc1c(-c2ccc(NC(=O)c3ccc(Cl)nc3)cn2)nnn1C)c1cc(F)cnc1F [Compound 212, (R)-1-(2,5-difluoropyridin-3-yl)ethyl (4-(5-(6-chloronicotinamido)pyridin-2-yl)-1-methyl-1H-1,2,3-triazol-5-yl)carbamate]",56.4 nM
10,"C[C@@H](OC(=O)Nc1c(-c2ccc(NC(=O)CC(C)(C)O)cn2)nnn1C)c1cccnc1Cl [Compound 118, (R)-1-(2-chloropyridin-3-yl)ethyl (4-(5-(3-hydroxy-3-methylbutanamido)pyridin-2-yl)-1-methyl-1H-1,2,3-triazol-5-yl)carbamate]",1340 nM
11,"C[C@@H](OC(=O)Nc1c(-c2ccc(NC(=O)C3(C(F)F)CC(F)(F)C3)cn2)nnn1C)c1cccnc1Cl [Compound 119, (R)-1-(2-chloropyridin-3-yl)ethyl (4-(5-(1-(difluoromethyl)-3,3-difluorocyclobutane-1-carboxamido)pyridin-2-yl)-1-methyl-1H-1,2,3-triazol-5-yl)carbamate]",49.9 nM
12,"C[C@@H](OC(=O)Nc1c(-c2ccc(NC(=O)c3cnnc(C(F)(F)F)c3)cn2)nnn1C)c1cc(F)cnc1F [Compound 259, (R)-1-(2,5-difluoropyridin-3-yl)ethyl (1-methyl-4-(5-(6-(trifluoromethyl)pyridazine-4-carboxamido)pyridin-2-yl)-1H-1,2,3-triazol-5-yl)carbamate]",101 nM
13,"C[C@@H](OC(=O)Nc1c(-c2ccc(NC(=O)C3COC3)cn2)nnn1C)c1cccnc1Cl [Compound 57, (R)-1-(2-chloropyridin-3-yl)ethyl (1-methyl-4-(5-(oxetane-3-carboxamido)pyridin-2-yl)-1H-1,2,3-triazol-5-yl)carbamate]",339 nM
14,"Cc1ncc(F)cc1[C@@H](C)OC(=O)Nc1c(-c2ccc(NC(=O)C3(C#N)CC3)cn2)nnn1C [Compound 177, (R)-1-(5-fluoro-2-methylpyridin-3-yl)ethyl (4-(5-(1-cyanocyclopropane-1-carboxamido)pyridin-2-yl)-1-methyl-1H-1,2,3-triazol-5-yl)carbamate]",48.3 nM
15,"C[C@@H](OC(=O)Nc1c(-c2ccc(NC(=O)c3ccc4ncn(C)c4c3)cn2)nnn1C)c1cc(F)cnc1F [Compound 274, (R)-1-(2,5-difluoropyridin-3-yl)ethyl (1-methyl-4-(5-(1-methyl-1H-benzo[d]imidazole-6-carboxamido)pyridin-2-yl)-1H-1,2,3-triazol-5-yl)carbamate]",403 nM
16,"C[C@@H](OC(=O)Nc1c(-c2ccc(NC(=O)c3cnc(C(F)F)nc3)cn2)nnn1C)c1cc(F)cnc1F [Compound 252, (R)-1-(2,5-difluoropyridin-3-yl)ethyl (4-(5-(2-(difluoromethyl)pyrimidine-5-carboxamido)pyridin-2-yl)-1-methyl-1H-1,2,3-triazol-5-yl)carbamate]",73.5 nM
17,"C[C@@H](OC(=O)Nc1c(-c2ccc(NC(=O)C3(C)CC3)cn2)nnn1C)c1cccnc1Cl [Compound 32, (R)-1-(2-chloropyridin-3-yl)ethyl (1-methyl-4-(5-(1-methylcyclopropane-1-carboxamido)pyridin-2-yl)-1H-1,2,3-triazol-5-yl)carbamate]",799 nM
18,"C[C@@H](OC(=O)Nc1c(-c2ccc(NC(=O)[C@@]3(C#N)C[C@@H]3C(F)(F)F)cn2)nnn1C)c1cccnc1Cl [Compound 202, (R)-1-(2-chloropyridin-3-yl)ethyl (4-(5-((1S,2S)-1-cyano-2-(trifluoromethyl)cyclopropane-1-carboxamido)pyridin-2-yl)-1-methyl-1H-1,2,3-triazol-5-yl)carbamate]",5 nM
19,"Cc1cc(C2(C(=O)Nc3ccc(-c4nnn(C)c4NC(=O)O[C@H](C)c4cccnc4Cl)nc3)CC2)on1 [Compound 160, (R)-1-(2-chloropyridin-3-yl)ethyl (1-methyl-4-(5-(1-(3-methylisoxazol-5-yl)cyclopropane-1-carboxamido)pyridin-2-yl)-1H-1,2,3-triazol-5-yl)carbamate]",1450 nM
20,"C[C@@H](OC(=O)Nc1c(-c2ccc(NC(=O)C34CC(C#N)(C3)C4)cn2)nnn1C)c1cccnc1F [Compound 174, (R)-1-(2-fluoropyridin-3-yl)ethyl (4-(5-(3-cyanobicyclo[1.1.1]pentane-1-carboxamido)pyridin-2-yl)-1-methyl-1H-1,2,3-triazol-5-yl)carbamate]",107 nM
21,"C[C@@H](OC(=O)Nc1c(-c2ccc(NC(=O)C3CC4(C3)CC3(CCC3)C4)cn2)nnn1C)c1cccnc1Cl [Compound 77, (R)-1-(2-chloropyridin-3-yl)ethyl (4-(5-(dispiro[3.1.36.14]decane-2-carboxamido)pyridin-2-yl)-1-methyl-1H-1,2,3-triazol-5-yl)carbamate]",25.5 nM
22,"C[C@@H](OC(=O)Nc1c(-c2ccc(NC(=O)[C@H]3C[C@@H]3F)cn2)nnn1C)c1cccnc1Cl [Compound 52, (R)-1-(2-chloropyridin-3-yl)ethyl (4-(5-((1R,2S)-2-fluorocyclopropane-1-carboxamido)pyridin-2-yl)-1-methyl-1H-1,2,3-triazol-5-yl)carbamate]",622 nM
23,"C[C@@H](OC(=O)Nc1c(-c2ccc(NC(=O)OC(C)(C)C)cn2)nnn1C)c1cccnc1Cl [Compound 11, (R)-1-(2-chloropyridin-3-yl)ethyl (4-(5-((tert-butoxycarbonyl)amino)pyridin-2-yl)-1-methyl-1H-1,2,3-triazol-5-yl)carbamate]",731 nM
24,"C[C@@H](OC(=O)Nc1c(-c2ccc(NC(=O)c3ccnc(F)c3F)cn2)nnn1C)c1cc(F)cnc1F [Compound 243, (R)-1-(2,5-difluoropyridin-3-yl)ethyl (4-(5-(2,3-difluoroisonicotinamido)pyridin-2-yl)-1-methyl-1H-1,2,3-triazol-5-yl)carbamate]",71.9 nM
25,"CC1CC1(C#N)C(=O)Nc1ccc(-c2nnn(C)c2NC(=O)O[C@H](C)c2cccnc2Cl)nc1 (stereo partly drawn) [Compound 148, (R)-1-(2-chloropyridin-3-yl)ethyl (4-(5-(1-cyano-2-methylcyclopropane-1-carboxamido)pyridin-2-yl)-1-methyl-1H-1,2,3-triazol-5-yl)carbamate]",30.4 nM
26,"C[C@@H](OC(=O)Nc1c(-c2ccc(NC(=O)C3(C#N)CC4(CC4)C3)cn2)nnn1C)c1cccnc1Cl [Compound 87, (R)-1-(2-chloropyridin-3-yl)ethyl (4-(5-(5-cyanospiro[2.3]hexane-5-carboxamido)pyridin-2-yl)-1-methyl-1H-1,2,3-triazol-5-yl)carbamate]",16.1 nM
27,"C[C@@H](OC(=O)Nc1c(-c2ccc(NC(=O)C34CC(S(C)(=O)=O)(C3)C4)cn2)nnn1C)c1cc(F)cnc1F [Compound 215, (R)-1-(2,5-difluoropyridin-3-yl)ethyl (1-methyl-4-(5-(3-(methylsulfonyl)bicyclo[1.1.1]pentane-1-carboxamido)pyridin-2-yl)-1H-1,2,3-triazol-5-yl)carbamate]",2000 nM
28,"C[C@@H](OC(=O)Nc1c(-c2ccc(NC(=O)C34CC(C)(C3)C4)cn2)nnn1C)c1cccnc1Cl [Compound 47, (R)-1-(2-chloropyridin-3-yl)ethyl (1-methyl-4-(5-(3-methylbicyclo[1.1.1]pentane-1-carboxamido)pyridin-2-yl)-1H-1,2,3-triazol-5-yl)carbamate]",19.1 nM
29,"CC(=O)Nc1ccc(-c2nnn(C)c2NC(=O)O[C@H](C)c2cccnc2Cl)nc1F [Compound 5, [(1R)-1-(2-chloro-3-pyridyl)ethyl] N-[5-(5-acetamido-6-fluoro-2-pyridyl)-3-methyl-triazol-4-yl]carbamate]",1510 nM
